Source: patent US10875837B2, “Inhibitors of the fibroblast growth factor receptor” (BLUEPRINT MEDICINES CORPORATION, priority 2013, dated 2020)

Assays:
wild type FGFR-4 = biological target: T1, wild type FGFR-4 (Homo sapiens, UniProt P22455); experiment: FGFR-4 wild type assay at Km (Caliper electrophoretic mobility shift); assay type: biochemical; settings: wild type FGFR-4, 400 uM ATP, 25 C, 90 minutes; read-out: INH-FGFR4
T1 construct: purchased Carna Biosciences, Inc
Protocol: Biochemical Activity Assessment In order to assess the activity of chemical compounds against the relevant kinase of interest, the Caliper LifeSciences electrophoretic mobility shift technology platform is utilized. Fluorescently labeled substrate peptide is incubated in the presence dosed levels of compounds, a set concentration of kinase and of ATP, so that a reflective proportion of the peptide is phosphorylated. At the end of the reaction, the mix of phosphorylated (product) and non-phosphorylated (substrate) peptides are passed through the microfluidic system of the Caliper LabChip® EZ Reader II, under an applied potential difference. The presence of the phosphate group on the product peptide provides a difference in mass and charge between the product peptide and the substrate peptide, resulting in a separation of the substrate and product pools in the sample. As the pools pass the LEDS within the instrument, these pools are detected and resolved as separate peaks. The ratio between these peaks therefore reflects the activity of the chemical matter at that concentration in that well, under those conditions.
FGFR-4 wild type assay at Km: In each well of a 384-well plate, 0.5 ng/ul of wild type FGFR-4 (Carna Biosciences, Inc.) was incubated in a total of 12.5 ul of buffer (100 mM HEPES pH 7.5, 0.015% Brij 35, 10 mM MgCl2, 1 mM DTT) with 1 uM CSKtide (5-FAM-KKKKEEIYFFFG-NH2) and 400 uM ATP at 25 C for 90 minutes in the presence or absence of a dosed concentration series of compound (1% DMSO final concentration). The reaction was stopped by the addition of 70 ul of Stop buffer (100 mM HEPES pH 7.5, 0.015% Brij 35, 35 mM EDTA and 0.2% of Coating Reagent 3 (Caliper Lifesciences)). The plate was then read on a Caliper LabChip® EZ Reader II (protocol settings: −1.9 psi, upstream voltage −700, downstream voltage −3000, post sample sip 35 s).

[1] = test system: pMAPK (Thr202/Tyr204) in MDA-MB453 or DMS 114 cells; experiment: Detection of pMAPK (Thr202/Tyr204) using Alpha ELISA (pERK alphaLISA); assay type: cell-based; settings: 1 hr incubation with compound; cell line not given (MDA-MB453 or DMS 114)
Protocol: Detection of pMAPK (Thr202/Tyr204) Using Alpha ELISA
MDA-MB453 or DMS 114 cells were plated in 96-well cell culture plates at a density of 1×10^5 cells or 3×10^4 cells, respectively. Cells were allowed to attach, and growth media was replaced with serum free media. Compounds were added at the indicated concentrations. Following 1 hr incubation in the presence of compound, cells were collected. For the DMS 114 cells, 100 ng/mL FGF2 was added for 10 min prior to cell collection. Cell lysates were prepared and processed according to manufacturer instruction (AlphaScreen® SureFire™ Phospho-ERK 1/2 Kit (Perkin Elmer).

Hep3B xenograft tumors = experiment: Hep3B liver cancer cell subcutaneous xenograft model in nude mice; assay type: in vivo
Protocol: The effects of Compound 27 on tumor growth inhibition in Hep3B liver cancer cell subcutaneous xenograft model with different dosages were studied.
Female nude mice (Mus musculus) age 6 to 8 weeks were used. Tumor cell culture and inoculation: Hep3B cells were cultured with EMEM medium (Invitrogen, USA) supplemented with 10% FBS (Gibco, Australia). The cells were harvested in 90% confluence, and the viability was no less than 90%. Mice were implanted subcutaneously (s.c.) with 200 μL of 10×10^6 Hep3B cells in 50% Matrigel in the right flank at the beginning of the study.
Animal grouping and dosing schedule: Ten days after cell implantation, when tumors reached an average volume of 284 mm^3, […] were selected based on tumor volume and randomly assigned to 5 treatment groups (n=9). The day of randomization was denoted as day 0 and the treatment was started from then on.
Tumor volume and body weight measurements: Tumor size was measured twice per week in two dimensions using a caliper, and the volume was expressed in mm^3 using the formula: V=0.5 a× b^2 where a and b were the long and short diameters of the tumor, respectively. Body weight was measured at least twice weekly.

T1 sequence (P22455 22-802): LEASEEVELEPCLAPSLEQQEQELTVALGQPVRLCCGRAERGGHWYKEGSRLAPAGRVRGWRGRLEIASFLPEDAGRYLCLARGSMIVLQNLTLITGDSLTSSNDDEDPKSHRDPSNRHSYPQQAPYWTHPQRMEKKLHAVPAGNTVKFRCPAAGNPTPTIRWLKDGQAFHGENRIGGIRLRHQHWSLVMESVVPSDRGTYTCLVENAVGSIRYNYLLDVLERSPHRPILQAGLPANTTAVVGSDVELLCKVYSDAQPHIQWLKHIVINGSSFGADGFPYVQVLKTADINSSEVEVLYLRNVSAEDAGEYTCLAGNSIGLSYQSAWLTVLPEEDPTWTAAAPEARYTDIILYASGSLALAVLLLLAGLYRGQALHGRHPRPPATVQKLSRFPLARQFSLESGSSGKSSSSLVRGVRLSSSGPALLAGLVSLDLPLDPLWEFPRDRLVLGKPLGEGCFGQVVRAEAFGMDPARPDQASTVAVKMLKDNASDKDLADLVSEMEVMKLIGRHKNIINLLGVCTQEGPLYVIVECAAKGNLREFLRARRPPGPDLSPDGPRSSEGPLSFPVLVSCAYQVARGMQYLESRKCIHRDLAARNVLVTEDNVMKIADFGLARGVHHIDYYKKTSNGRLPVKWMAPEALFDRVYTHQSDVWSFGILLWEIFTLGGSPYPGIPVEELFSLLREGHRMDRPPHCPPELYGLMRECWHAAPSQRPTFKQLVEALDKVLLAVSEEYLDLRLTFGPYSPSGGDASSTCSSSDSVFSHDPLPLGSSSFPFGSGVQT

| Structure (SMILES) | IC50 (wild type FGFR-4) [nM] | IC50 [1] [nM] | tumor response (Hep3B xenograft tumors; 100 mg/kg PO BID, Hep3B xenograft, nude mice) | tumor volume compared with vehicle group (Hep3B xenograft tumors; 30 and 100 mg/kg PO BID, Hep3B xenograft, nude mice) | body weight change (Hep3B xenograft tumors; Hep3B-bearing nude mice, only the 100 mg/kg PO BID group did not lose bodyweight) | tumor volume compared with vehicle group during the entire study (Hep3B xenograft tumors; all treated groups, 10 mg/kg to 100 mg/kg, Hep3B xenograft, nude mice) | tolerability (Hep3B xenograft tumors; current dosages and dosing schedule (10 to 100 mg/kg PO BID), nude mice) | dose dependence of tumor inhibition efficiency (Hep3B xenograft tumors; increasing dosage from 10 mg/kg to 100 mg/kg) |
| --- | --- | --- | --- | --- | --- | --- | --- | --- |
| C=CC(=O)N[C@H]1COC[C@H]1Nc1ncc2cc(-c3c(Cl)c(OC)cc(OC)c3Cl)ccc2n1 [Compound 27, N-[(3R,4S)-4-{[6-(2,6-dichloro-3,5-dimethoxyphenyl)quinazolin-2-yl]amino}oxolan-3-yl]prop-2-enamide] | < 10 | < 10 | regressed and almost disappeared | Statistically significant reduction of tumor volumes | could alleviate body weight loss | significant reduction of tumor volume | well tolerated | enhanced the tumor inhibition efficiency |
| C=CC(=O)N[C@H]1CN(C(=O)CN2CCCC2)C[C@H]1Nc1ncc2cc(-c3c(Cl)c(OC)cc(OC)c3Cl)ccc2n1 [Compound 91] | < 10 | 10 to 100 | – | – | – | – | – | – |
